Converted amounts (≈) assume the structure as drawn.
Assays:
[1] = Antiproliferative activity against human U-87 MG cells assessed as cell growth inhibition by MTT assay; format: functional, cell-based, U-87MG ATCC
NCI-H460 = assay: Antiproliferative activity against human NCI-H460 cells assessed as cell growth inhibition by MTT assay
MKN-45 = assay: Antiproliferative activity against human MKN-45 cells assessed as cell growth inhibition by MTT assay
SMMC-7721 = assay: Antiproliferative activity against human SMMC-7721 cells assessed as cell growth inhibition by MTT assay
A549 = assay: cells; settings: Homo sapiens
Description: Antiproliferative activity against human A549 cells assessed as cell growth inhibition by MTT assay

HT-29 = assay: cells; settings: Homo sapiens
Description: Antiproliferative activity against human HT-29 cells assessed as cell growth inhibition by MTT assay

[2] = Inhibition of CaCC (unknown origin) current potentiation; parameters: species or system Homo sapiens
NCI-H1299 = assay: Cytotoxicity against human NCI-H1299 cells assessed as cell growth inhibition incubated for 48 hrs by SRB assay; format: functional, cell-based; settings: NCI-H1299, 48 h
Leishmania amazonensis = assay: Anti-promastigote activity against Leishmania amazonensis (IFLA/BR/67/PH8) assessed as promastigote growth inhibition incubated for 72 hrs by microscopic analysis; format: functional, organism-based; settings: Leishmania amazonensis, IFLA/BR/67/PH8, 72 h
Staphylococcus coagulans = assay: Antimicrobial activity against Staphylococcus coagulans assessed as microbial growth inhibition incubated for 24 hrs by disc diffusion assay; format: functional
Heyndrickxia coagulans = assay: Antibacterial activity against Bacillus coagulans assessed as bacterial growth inhibition; format: functional
Enterococcus faecalis = assay: Antibacterial activity against Enterococcus faecalis assessed as bacterial growth inhibition; format: functional
Staphylococcus aureus [3] = assay: Antibacterial activity against Staphylococcus aureus NCIM 2010 assessed as bacterial growth inhibition incubated for 8 hrs by absorbance based assay; format: functional
Bacillus subtilis [4] = assay: Antibacterial activity against Bacillus subtilis NCIM 2079 assessed as bacterial growth inhibition incubated for 8 hrs by absorbance based assay; format: functional
Escherichia coli = assay: Antibacterial activity against Escherichia coli NCIM 2688 assessed as bacterial growth inhibition incubated for 8 hrs by absorbance based assay; format: functional
Pseudomonas aeruginosa = assay: Antibacterial activity against Pseudomonas aeruginosa NCIM 2036 assessed as bacterial growth inhibition incubated for 8 hrs by absorbance based assay; format: functional
Staphylococcus aureus [5] = assay: Antibacterial activity against Staphylococcus aureus NCIM 2010 assessed as reduction in bacterial growth incubated for 8 hrs by absorbance based assay; format: functional, organism-based; settings: NCIM 2010, 8 h
Bacillus subtilis [6] = assay: Antibacterial activity against Bacillus subtilis NCIM 2079 assessed as reduction in bacterial growth incubated for 8 hrs by absorbance based assay; format: functional, organism-based; settings: NCIM 2079, 8 h
HepG2 = assay: Cytotoxicity against human HepG2 cells assessed as cell growth inhibition incubated for 48 hrs by MTT assay; format: functional, cell-based; settings: Homo sapiens, HepG2, 48 h
MCF7 = assay: Cytotoxicity against human MCF7 cells assessed as cell growth inhibition incubated for 48 hrs by MTT assay; format: functional, cell-based; settings: MCF7, 48 h
[7] = test system: Mycobacterium tuberculosis; assay: Antimycobacterial activity against Mycobacterium tuberculosis H37Ra incubated for 8 to 12 days by XTT reduction menadione assay; format: functional; settings: time 8-12 day

N#CCC(=O)Nc1sc(C(=O)Nc2ccc(Cl)cc2)c(-c2ccccc2)c1C#N
IC50 [1]: 860 nM | IC50 (NCI-H460): 1040 nM | IC50 (MKN-45): 590 nM | IC50 (SMMC-7721): 390 nM | IC50 (A549): 1400 nM | IC50 (HT-29): 860 nM

CCOC(=O)c1c(NC(=O)CC#N)sc(C(=O)Nc2ccccc2)c1-c1ccccc1
IC50 [1]: 620 nM | IC50 (NCI-H460): 490 nM | IC50 (MKN-45): 590 nM | IC50 (SMMC-7721): 530 nM | IC50 (A549): 320 nM | IC50 (HT-29): 630 nM

C=CCNC(=S)Nc1sc2c(c1C(=O)OC)CCC(C(C)(C)C)C2 (stereo unspecified)
IC50 [2]: 49700 nM

N#Cc1c(N)sc(C(=O)Nc2ccc(Cl)cc2)c1-c1ccccc1
IC50 [1]: 590 nM | IC50 (NCI-H460): 760 nM | IC50 (MKN-45): 420 nM | IC50 (SMMC-7721): 690 nM | IC50 (A549): 700 nM | IC50 (HT-29): 650 nM

Cc1cc(C)c2c(NCC(=O)Nc3sc4c(c3C#N)CCCC4)n[nH]c2n1
IC50 (NCI-H1299): 13700 nM

N#Cc1c(NC(=O)CNc2n[nH]c3ncccc23)sc2c1CCCC2
IC50 (NCI-H1299): 12.5 nM

COc1ccc2nc3cc(Cl)ccc3c(Nc3sc4c(c3C(N)=O)CCCC4)c2c1
EC50 (Leishmania amazonensis): 31800 nM

N#Cc1c(NC(=O)c2cc(O)c(O)c(O)c2)sc2c1CCC2
MIC (Staphylococcus coagulans): 0.32 µM (≈ 0.101 µg/mL) | MIC (Heyndrickxia coagulans): 0.1 µg/mL (≈ 0.316 µM) | MIC (Enterococcus faecalis): 0.25 µg/mL (≈ 0.79 µM)

CC1(C)S[C@@H]2[C@H](NC(=O)[C@H](N)c3ccccc3)C(=O)N2[C@H]1C(=O)O [AMPICILLIN]
MIC (Staphylococcus aureus [3]): 0.28 µg/mL (≈ 0.801 µM) | MIC (Bacillus subtilis [4]): 0.28 µg/mL (≈ 0.801 µM) | MIC (Escherichia coli): 0.88 µg/mL (≈ 2.52 µM) | MIC (Pseudomonas aeruginosa): > 10 µg/mL | EC50 (Staphylococcus aureus [5]): 150 nM | EC50 (Bacillus subtilis [6]): 150 nM

CC(=O)c1ccc(Nc2c(C(C)=O)sc(N)c2C#N)cc1
IC50 (HepG2): 88500 nM | IC50 (MCF7): 91500 nM

N#Cc1c(N)sc(C(=O)Nc2ccccc2)c1-c1ccccc1
IC50 [1]: 8930 nM | IC50 (NCI-H460): 9620 nM | IC50 (MKN-45): 7090 nM | IC50 (SMMC-7721): 5090 nM | IC50 (A549): 8280 nM | IC50 (HT-29): 8390 nM

CCOC(=O)c1c(N)sc(C(=O)Nc2ccc(Cl)cc2)c1-c1ccccc1
IC50 [1]: 390 nM | IC50 (NCI-H460): 380 nM | IC50 (MKN-45): 260 nM | IC50 (SMMC-7721): 420 nM | IC50 (A549): 230 nM | IC50 (HT-29): 190 nM

COc1ccc2nc3cc(Cl)ccc3c(Nc3sc4c(c3C#N)CCCCC4)c2c1
EC50 (Leishmania amazonensis): 32300 nM

CCOC(=O)c1c(Nc2c3ccc(Cl)cc3nc3ccc(OC)cc23)sc2c1CCCCC2
EC50 (Leishmania amazonensis): 26600 nM

N#Cc1c(/N=C/c2c3ccccc3nc3ccccc23)sc2c1CCC2
EC50 (Leishmania amazonensis): > 500000 nM

COC(=O)c1ccsc1NC(=O)N[C@@H](C(=O)N[C@@H]1C(=O)N2[C@@H]1SC(C)(C)[C@@H]2C(=O)O)c1ccccc1
MIC (Staphylococcus aureus [3]): 0.28 µg/mL (≈ 0.526 µM) | MIC (Bacillus subtilis [4]): 0.55 µg/mL (≈ 1.03 µM) | MIC (Escherichia coli): > 10 µg/mL | MIC (Pseudomonas aeruginosa): > 10 µg/mL | MIC [7]: > 50 µg/mL | EC50 (Staphylococcus aureus [5]): 160 nM | EC50 (Bacillus subtilis [6]): 210 nM

COC(=O)c1c(NC(=O)N[C@@H](C(=O)N[C@@H]2C(=O)N3[C@@H]2SC(C)(C)[C@@H]3C(=O)O)c2ccc(O)cc2)sc2c1CCCCCC2
MIC (Staphylococcus aureus [3]): 0.28 µg/mL (≈ 0.444 µM) | MIC (Bacillus subtilis [4]): 2.57 µg/mL (≈ 4.07 µM) | MIC (Escherichia coli): > 10 µg/mL | MIC (Pseudomonas aeruginosa): > 10 µg/mL | MIC [7]: > 50 µg/mL | EC50 (Staphylococcus aureus [5]): 160 nM | EC50 (Bacillus subtilis [6]): 250 nM

N#CCC(=O)Nc1sc(C(=O)Nc2ccccc2)c(-c2ccccc2)c1C#N
IC50 [1]: 6280 nM | IC50 (NCI-H460): 8060 nM | IC50 (MKN-45): 9140 nM | IC50 (SMMC-7721): 7930 nM | IC50 (A549): 7590 nM | IC50 (HT-29): 6590 nM

CC(=O)Nc1sc(C(C)=O)c(Nc2ccc(C(C)=O)cc2)c1C#N
IC50 (HepG2): 66200 nM | IC50 (MCF7): 64600 nM

N#Cc1c(NC(=O)CNc2onc3ncccc23)sc2c1CCCC2
IC50 (NCI-H1299): 18400 nM

CC(C)(C)C1CCc2c(sc(NC3=NCC(CBr)S3)c2C(=O)O)C1 (stereo unspecified)
IC50 [2]: 24800 nM

COc1ccc(/C=N/NCC(=O)Nc2sc3c(c2C#N)CCCC3)cc1
IC50 (NCI-H1299): 18500 nM

COc1cc2c(Oc3ccc(NC(=O)C4(C(=O)Nc5ccc(F)cc5)CC4)cc3F)ccnc2cc1OCCCN1CCOCC1 [FORETINIB]
IC50 [1]: 900 nM

COc1ccc2nc3cc(Cl)ccc3c(Nc3sc4c(c3C#N)CCCCCC4)c2c1
EC50 (Leishmania amazonensis): 69000 nM

CO[C@H]1/C=C/O[C@@]2(C)Oc3c(C)c(O)c4c(O)c(c(/C=N/N5CCN(C)CC5)c(O)c4c3C2=O)NC(=O)/C(C)=C\C=C\[C@H](C)[C@H](O)[C@@H](C)[C@@H](O)[C@@H](C)[C@H](OC(C)=O)[C@@H]1C [RIFAMPIN]
MIC [7]: 0.042 µg/mL (≈ 0.051 µM)

Reference: ChEMBL document CHEMBL5214926, “Recent contribution of medicinally active 2-aminothiophenes: A privileged scaffold for drug discovery” (Eur J Med Chem, 2022)
